The text below walks through data of ChEMBL document CHEMBL1671825, “Synthesis and in Vitro and in Vivo Evaluation of Phosphoinositide-3-kinase Inhibitors” (ACS Med Chem Lett, 2011).

What all share (type): ADME, organism-based
Data set [1] is described as follows: Half life in rat at 5 mg/kg, iv. Also noted: dose 5 mg/kg, route intravenous. Conditions: in vivo.
The nature of data set [2]: Oral bioavailability in rat at 20 mg/kg. Conditions: in vivo.
Data set [3] can be described thus: Clearance in rat at 5 mg/kg, iv and 20 mg/kg, po. Conditions: in vivo.
Data set [4] can be described thus: Volume of distribution at steady state in rat at 5 mg/kg, iv and 20 mg/kg, po. Conditions: in vivo, read-out: Vdss.
A short description of data set [5]: AUC in rat at 20 mg/kg, po. Also noted: dose 20 mg/kg, route oral. Conditions: plasma.
A short description of data set [6]: Volume of distribution at steady state in mouse at 5 mg/kg, iv and 10 mg/kg, po. Conditions: in vivo, read-out: Vdss.
A short description of data set [7]: Half life in mouse at 10 mg/kg, po. Also noted: dose 10 mg/kg, route oral. Conditions: in vivo.
The nature of data set [8]: Clearance in mouse at 5 mg/kg, iv and 10 mg/kg, po. Conditions: in vivo.
The nature of data set [9]: AUC in mouse at 10 mg/kg, po. Also noted: dose 10 mg/kg, route oral. Conditions: plasma.
Data set [10] is described as follows: Oral bioavailability in mouse at 10 mg/kg. Conditions: in vivo.

Each structure is given as a SMILES string.

As to `Oc1cccc(-c2cc(Nc3cnc4ccccc4c3)nc(N3CCOCC3)n2)c1`, the half-life – broadly, how long it takes for the measured level to halve – in data set [1] was found to be 30 min. Also, the bioavailability (in general, the share of a dose that reaches the circulation, judged against a reference dose that is usually intravenous) in data set [2] came to 1%. In [3], this compound came in with a clearance of 179 mL/min/kg. In addition, in data set [4], the Vd was 6.9 L/kg. Besides, the AUC (commonly concentration integrated over time) in data set [5] was 0.03 µM·h.

For `c1cncc(-c2cc(Nc3cnc4ccccc4c3)nc(N3CCOCC3)n2)c1`, the half-life in data set [1] was found to be 55 min. This compound also gave a bioavailability in data set [2] of 46%. For the same compound, the clearance in data set [3] stood at 26 mL/min/kg. Also, in data set [4], the Vd was found to be 2.4 L/kg. Also, the AUC in [5] was found to be 16 µM·h.

On to `Nc1ccc(-c2cc(Nc3cnc4ccccc4c3)nc(N3CCOCC3)n2)cn1`, for which the half-life in data set [1] was found to be 103 min. Further, the bioavailability in [2] amounted to 56%. In data set [3], this compound had a clearance of 5 mL/min/kg. Further, the Vd in data set [4] is 0.8 L/kg. This compound also had an AUC in [5] of 93 µM·h.

Turning to `Nc1ncc(-c2cc(Nc3cnc4ccccc4c3)nc(N3CCOCC3)n2)cn1`, the half-life in data set [1] worked out at 43 min. This compound returned a bioavailability in data set [2] of 23%. The clearance in data set [3] stood at 37 mL/min/kg. In [4], the Vd was 1.9 L/kg. The compound further returned an AUC in [5] of 6 µM·h.

In the case of `COc1ccc(Nc2cc(-c3cnc(N)nc3)nc(N3CCOCC3)n2)cn1`, in [6], the Vd stood at 1.1 L/kg. In [7], this compound had a half-life of 282 min. In data set [8], this compound returned a clearance of 99 mL/min/kg. This compound yielded an AUC in [9] of 2 µM·h. The compound further showed a bioavailability in data set [10] of 87%.
